Measured values from PMC5054527, “Mechanism of high affinity inhibition of the human urate transporter URAT1” (Scientific Reports, 2016).

Experiments:
human URAT1 = molecular target: T1, human URAT1 (Homo sapiens, UniProt Q96S37); assay: ^3H-RDEA3170 URAT1 membrane binding assay
T1 construct: hURAT1 and rURAT1 are 553 amino acid proteins with 12 transmembrane segments; expressed in transfected cells; host or cells: URAT1-transfected cells (HEK-293T per the transfection section)
T1 sequence (Q96S37 1-553): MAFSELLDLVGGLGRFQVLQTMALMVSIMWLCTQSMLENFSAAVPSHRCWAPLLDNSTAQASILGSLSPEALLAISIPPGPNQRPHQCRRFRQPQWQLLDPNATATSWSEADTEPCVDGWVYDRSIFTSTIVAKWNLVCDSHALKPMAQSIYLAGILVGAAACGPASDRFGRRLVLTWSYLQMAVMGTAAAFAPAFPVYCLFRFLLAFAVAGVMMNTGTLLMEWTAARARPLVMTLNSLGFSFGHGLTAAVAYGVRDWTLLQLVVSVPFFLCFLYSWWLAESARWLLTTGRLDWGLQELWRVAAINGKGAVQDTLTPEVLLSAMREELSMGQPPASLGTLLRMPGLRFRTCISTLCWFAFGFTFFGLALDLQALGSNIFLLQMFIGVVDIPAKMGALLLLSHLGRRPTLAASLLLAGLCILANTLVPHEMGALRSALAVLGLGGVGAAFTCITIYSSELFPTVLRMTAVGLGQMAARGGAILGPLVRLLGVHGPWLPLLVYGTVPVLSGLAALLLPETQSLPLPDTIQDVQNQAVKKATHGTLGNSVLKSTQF
Experimental: (§1) Membranes were prepared from URAT1-transfected cells. […] Cells were lysed with 100 strokes in a dounce homogenizer using a tight-fitting “B” stem. Lysates were transferred to 1.5 ml Eppendorf tubes and centrifuged at 250 rcf for 5 minutes at 2 °C, and supernatants were transferred to fresh tubes and centrifuged again at 18,000 rcf for 20 minutes at 2 °C. The pellets (membrane fractions) were resuspended in 1 ml of ice-cold binding buffer containing protease inhibitors and frozen at −80 °C. Protein was measured using the Bio-Rad protein assay dye reagent concentrate.
(§2) To initiate binding, membranes at 2.5 μg total protein were incubated with ^3H-RDEA3170 for 30 minutes at room temperature. […] The plates were then subjected to scintillation counting. All samples were assayed in triplicate.

rat URAT1 = molecular target: T2, rat URAT1 (Rattus norvegicus, UniProt Q3ZAV1); assay: ^3H-RDEA3170 URAT1 membrane binding assay; details: 500 nM ^3H-RDEA3170; membranes from transfected cells
T2 construct: hURAT1 and rURAT1 are 553 amino acid proteins with 12 transmembrane segments; expressed in transfected cells; host or cells: URAT1-transfected cells (HEK-293T per the transfection section)
Experimental: as §1, §2

T2 sequence (Q3ZAV1 whole entry): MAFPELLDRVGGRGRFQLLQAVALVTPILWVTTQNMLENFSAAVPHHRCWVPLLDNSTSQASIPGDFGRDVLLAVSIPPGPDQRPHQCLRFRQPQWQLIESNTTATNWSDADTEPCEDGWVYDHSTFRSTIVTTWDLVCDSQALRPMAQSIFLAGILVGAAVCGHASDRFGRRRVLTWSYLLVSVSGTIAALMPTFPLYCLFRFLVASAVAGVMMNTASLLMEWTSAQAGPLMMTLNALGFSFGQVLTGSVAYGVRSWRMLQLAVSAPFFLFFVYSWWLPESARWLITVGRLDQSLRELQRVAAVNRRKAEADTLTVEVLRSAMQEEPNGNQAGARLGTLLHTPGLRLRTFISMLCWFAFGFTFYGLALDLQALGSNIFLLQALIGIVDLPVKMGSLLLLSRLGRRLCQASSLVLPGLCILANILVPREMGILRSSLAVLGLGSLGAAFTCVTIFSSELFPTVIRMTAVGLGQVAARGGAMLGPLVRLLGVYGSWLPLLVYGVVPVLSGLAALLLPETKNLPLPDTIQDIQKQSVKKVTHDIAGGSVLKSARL

SMILES	binding of probe to human URAT1 membranes (human URAT1; 500 nM ^3H-RDEA3170, membranes from transfected cells)	binding of probe to rat URAT1 membranes (rat URAT1)	displacement of ^3H-RDEA3170 binding to hURAT1 (human URAT1; human URAT1 membranes, 10 nM ^3H-RDEA3170)
CC(C)(Sc1ccncc1-c1ccc(C#N)c2ccccc12)C(=O)O [^3H-RDEA3170, 2-((3-(4-cyanonaphthalen-1-yl)pyrindin-4-yl)thio)-2-methylpropanoic acid]	binds to human URAT1	not rat URAT1	
CCCN(CCC)S(=O)(=O)c1ccc(C(=O)O)cc1 [probenecid]			displace binding of the probe
